Some test systems named below: DMS 114 small cell lung; LXFL 529 NSCLC; RXF-631 renal; DLD-1 colon; M19-MEL melanoma; SNB-78 CNS; KM20L2 colon; XF 498 CNS; MDA-N; SN12K1 renal; P388/ADR leukemia; P388 leukemia.
Common to all, as to assay: NCI tumour cell line growth inhibition, 48 h

“And” between values parts separate entries of the source, which are not always exact repeats. Equal entries are not always repeated.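 Method: 48-hour compound exposure of cells in 96-well plates, five concentrations, linear interpolation of endpoints. GI50 is the concentration that inhibits growth by half. TGI marks complete inhibition of growth.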 Where a SMILES comes first, the peptide text is derived from it. The star is where a group is joined. Boc = CC(C)(C)OC(=O)*

Take `COC12OCCN(C)C1=CC(=O)C1=NNC(C)C12` (stereo unspecified): the TGI in the assay with DMS 114 small cell lung, in the assay with LXFL 529 NSCLC, in the assay on RXF-631 renal, in the assay on DLD-1 colon, with M19-MEL melanoma and in the assay on SNB-78 CNS was over 100 µM each time.

Turning to `[N-]=[N+]=N/C1=C/CCCCC(=O)C1`, the TGI in the assay with DMS 114 small cell lung, with LXFL 529 NSCLC, in the assay with KM20L2 colon, with DLD-1 colon, in the assay with M19-MEL melanoma and with XF 498 CNS was over 100 µM each time. This molecule registered a TGI with SNB-78 CNS of over 100 µM.

Regarding `O=c1[nH]c2ccc(O)cc2o1`, in the assay with MDA-N, the TGI is over 100 µM.

Regarding `C/C(=N\NC(=S)N1CCCCCC1)c1ccccn1`, the TGI in the assay with DMS 114 small cell lung is 0.138 µM and 0.0298 µM; in the assay on LXFL 529 NSCLC it was 0.19 µM and 0.405 µM; in the assay with RXF-631 renal it was 2.83 µM; in the assay on DLD-1 colon it was 1.38 µM and 4.44 µM; with M19-MEL melanoma, 1.06 µM and 0.687 µM; with MDA-N, 1.5 µM. Further, the TGI in the assay on SNB-78 CNS came to 13.7 µM. Also, the GI50 in the assay on M19-MEL melanoma is 0.109 µM; with MDA-N, 0.169 µM; in the assay on XF 498 CNS, 0.0141 µM; in the assay with SNB-78 CNS, 0.355 µM.

Consider `CCN(CC)CCSc1c2ccccc2nc2c(OC)ccc(OC)c12`, for which the TGI with DMS 114 small cell lung is 3.24 µM; in the assay on LXFL 529 NSCLC, over 21.3 µM; with RXF-631 renal it was 17.9 µM; with KM20L2 colon, over 21.1 µM; with M19-MEL melanoma it was 38.2 µM; with XF 498 CNS, over 21.1 µM. In addition, in the assay with SNB-78 CNS, the TGI was determined as 22.3 µM.

Molecule `CN(C)CCSc1cc(-c2ccccc2)c2ccccc2n1` yielded a TGI in the assay with MDA-N of 22.7 µM.

Consider `COc1ccc(C2=C(c3ccc(OC)cc3)C(=O)N3CCCC3C2)cc1` (stereo unspecified), for which, in the assay with MDA-N, the GI50 is 12.2 µM and the TGI is over 100 µM.

`O=C1CCC(=O)c2c1c(O)c1ccncc1c2O`: the TGI came out at 25.4 µM in the assay on DMS 114 small cell lung; 30.2 µM in the assay with LXFL 529 NSCLC; 54.8 µM in the assay on RXF-631 renal; 49.8 µM in the assay on KM20L2 colon; 28.1 µM in the assay with DLD-1 colon; 32.7 µM in the assay on XF 498 CNS. The TGI in the assay on SNB-78 CNS worked out at 38.4 µM.

Molecule `CN(C)c1ncnc2c1ncn2CCn1cnc2c(N(C)C)ncnc21` showed a TGI in the assay with MDA-N of over 100 µM.

In turn, `S=c1[nH]c2c(Cl)c(Cl)c(Cl)c(Cl)c2[nH]1` displayed a TGI in the assay on MDA-N of 51.4 µM.

As to `O=C(CNS(=O)(=O)Cc1ccccc1)NNc1ccccc1`, in the assay on MDA-N, the TGI was over 100 µM.

As for `CC1(Br)Cc2ccccc2C1=O` (stereo unspecified), in the assay with MDA-N, the GI50 was 4.45 µM and the TGI amounted to 18.2 µM.

For the molecule `CC12CCC3c4ccc(O)cc4CCC3C1C/C(=N\O)C2O` (stereo unspecified), the TGI in the assay with MDA-N is over 100 µM.

`C=COC(=O)N[C@H]1CCc2cc(OC)c(OC)c(OC)c2-c2ccc(SC)c(=O)cc21`: the TGI is over 100 µM in the assay on LXFL 529 NSCLC; under 0.01 µM in the assay with KM20L2 colon; over 100 µM in the assay on M19-MEL melanoma; under 0.01 µM with MDA-N; over 62.3 µM in the assay on XF 498 CNS; over 100 µM with SNB-78 CNS.

In the case of `COC(=O)c1s/c(=N\C(=S)N(C)C)n(-c2ccc(Cl)cc2)c1C(=O)OC`, the TGI with KM20L2 colon, with M19-MEL melanoma and in the assay on SNB-78 CNS was over 100 µM in each case.

Turning to `COC(=O)c1cc2c(s1)-c1nccc3c1c(nc1ccccc13)C2=O`, in the assay with MDA-N, the GI50 is 32.9 µM and the TGI was over 100 µM.

`CCc1c(Cl)c(C)cc(O)c1Cl`: the TGI with MDA-N was determined as 41.3 µM.

Regarding `Cc1ccc(S(=O)OCc2c(C)c(C)c(COS(=O)c3ccc(C)cc3)c(C)c2C)cc1` (stereo unspecified), the TGI in the assay on DMS 114 small cell lung, with LXFL 529 NSCLC, with KM20L2 colon, in the assay on DLD-1 colon, in the assay with M19-MEL melanoma and with XF 498 CNS was over 100 µM throughout. Moreover, in the assay with SNB-78 CNS, the TGI is over 100 µM.

As to `CCOC(=O)c1ccc(N=Nc2cc(C(=O)OCC)ccc2O)cc1`, the TGI is over 100 µM in the assay on DMS 114 small cell lung; over 100 µM in the assay on LXFL 529 NSCLC; over 100 µM in the assay on KM20L2 colon; over 100 µM with DLD-1 colon; over 100 µM in the assay on M19-MEL melanoma; 22 µM in the assay with XF 498 CNS.

In turn, `Oc1ccc2ccccc2c1N=Nc1ccc(Br)cc1` yielded a TGI in the assay on MDA-N of over 100 µM.

Take `O=C(/C=C/C=C/c1ccccc1)c1ccccc1`: the TGI in the assay on MDA-N was 30.4 µM.

For the molecule `COc1ccc2c(c1)c[n+](C)c1c3cc(OC)c(OC)cc3ccc21`, the TGI is 7.14 µM in the assay on DMS 114 small cell lung; 7.25 µM in the assay with LXFL 529 NSCLC; 17.8 µM in the assay on KM20L2 colon; 18 µM in the assay with DLD-1 colon; 15.8 µM with M19-MEL melanoma; 3.08 µM and 8.07 µM with MDA-N. Moreover, the results for the TGI in the assay on XF 498 CNS and with SNB-78 CNS were 17.1 µM and 22.4 µM, respectively.

In the case of `Cc1cc2cc3c(=O)[nH]c(=O)[nH]c3nc2cc1C`, the TGI with MDA-N was over 100 µM.

For `COC12C(COC(N)=O)C3=C(C(=O)C(C)=C(N)C3=O)N1CC1C2N1C` (stereo unspecified), the TGI amounted to 19.9 µM with SN12K1 renal; 52.3 µM with KM20L2 colon; 57.8 µM in the assay on DLD-1 colon; 24.7 µM in the assay with M19-MEL melanoma; 263 µM in the assay with P388/ADR leukemia; 35.3 µM with MDA-N. The TGI in the assay with XF 498 CNS came to 21 µM; in the assay on SNB-78 CNS, 51.1 µM; in the assay with P388 leukemia, 75.2 µM.

For the molecule `CC(=O)N1CCC(=O)/C(=C/c2ccccc2)C1`, the TGI in the assay on DMS 114 small cell lung was 30.8 µM; in the assay on LXFL 529 NSCLC, 47.2 µM; with RXF-631 renal, over 100 µM; in the assay on KM20L2 colon it was over 100 µM; in the assay with DLD-1 colon, 66.2 µM; in the assay with M19-MEL melanoma, 58.3 µM. The TGI in the assay on XF 498 CNS and with SNB-78 CNS was over 100 µM in each case.

Turning to `CSc1nc(NC2OC(COC(C)=O)C(OC(C)=O)C(OC(C)=O)C2OC(C)=O)c(N=CC=Nc2c(NC3OC(COC(C)=O)C(OC(C)=O)C(OC(C)=O)C3OC(C)=O)nc(SC)n(C)c2=O)c(=O)n1C` (stereo unspecified), the TGI in the assay with DMS 114 small cell lung, with LXFL 529 NSCLC, with RXF-631 renal, in the assay on KM20L2 colon, in the assay with DLD-1 colon and with M19-MEL melanoma was over 100 µM each time. The TGI with MDA-N is over 100 µM; in the assay on XF 498 CNS, 30.3 µM; with SNB-78 CNS, over 93.7 µM.

Regarding `C[Si](C)(C)/C(I)=C/CO`, the TGI was over 100 µM in the assay on LXFL 529 NSCLC; 83.8 µM with RXF-631 renal; 55.9 µM with KM20L2 colon; 53.1 µM with M19-MEL melanoma; 31.9 µM with XF 498 CNS; 95.3 µM with SNB-78 CNS.

`C=CCN1CCC23c4c5ccc(O)c4OC2C(=NN=C2CCC4(O)C6Cc7ccc(O)c8c7C4(CCN6CC=C)C2O8)CCC3(O)C1C5` (stereo unspecified): the TGI with DMS 114 small cell lung was 60.8 µM; with LXFL 529 NSCLC, 88.7 µM; in the assay on RXF-631 renal it was 50.2 µM; in the assay with KM20L2 colon, 47.8 µM; in the assay with DLD-1 colon, over 100 µM; with XF 498 CNS, 32.9 µM. In the assay with SNB-78 CNS, this molecule came in with a TGI of 68 µM.

Consider `Nc1ccn(C2OC(CO)C(O)C2O)c(=O)n1` (stereo unspecified), for which the TGI in the assay with DMS 114 small cell lung was 417 µM; with LXFL 529 NSCLC, over 500 µM; in the assay with SN12K1 renal it was over 500 µM; with KM20L2 colon, over 482 µM; in the assay on DLD-1 colon it was over 500 µM; in the assay on M19-MEL melanoma, over 500 µM. The TGI in the assay on P388/ADR leukemia was 1.15 µM; with MDA-N, over 500 µM; in the assay on XF 498 CNS it was over 494 µM; in the assay with P388 leukemia, 1.81 µM. For the same molecule, in the assay with M19-MEL melanoma, the GI50 is 15.6 µM.

As for `COC(=O)C1=C(C(=O)OC)C2=S(SC3=C2CCCC3)S1` (stereo unspecified), the TGI is 30 µM in the assay with LXFL 529 NSCLC, 76.5 µM in the assay with KM20L2 colon, over 100 µM in the assay on DLD-1 colon and over 100 µM in the assay with M19-MEL melanoma.

Turning to `COC(=O)C(C)NC(=O)C(CCSC)NC(=O)C(Cc1ccccc1)NC(=O)OC(C)(C)C` (stereo not drawn) (Boc-Phe-Met-Ala-OMe; configuration not given here), in the assay with MDA-N, the GI50 was 48.9 µg/mL and the TGI was over 100 µM.

For `CC(C)=CCc1cc2c(cc1O)OC[C@H]1c3cc4c(cc3O[C@@H]21)OCO4`, the TGI with MDA-N is over 100 µM.
